Experimental data as given in ChEMBL document CHEMBL2074161, “Substrate upregulation of the human small intestinal peptide transporter, hPepT1” (J Physiol, 1998).
Peptide text beside a SMILES is read from it.

Biological target: T1, Solute carrier family 15 member 1 (Homo sapiens) (UniProt P46059)
T1 sequence (whole entry): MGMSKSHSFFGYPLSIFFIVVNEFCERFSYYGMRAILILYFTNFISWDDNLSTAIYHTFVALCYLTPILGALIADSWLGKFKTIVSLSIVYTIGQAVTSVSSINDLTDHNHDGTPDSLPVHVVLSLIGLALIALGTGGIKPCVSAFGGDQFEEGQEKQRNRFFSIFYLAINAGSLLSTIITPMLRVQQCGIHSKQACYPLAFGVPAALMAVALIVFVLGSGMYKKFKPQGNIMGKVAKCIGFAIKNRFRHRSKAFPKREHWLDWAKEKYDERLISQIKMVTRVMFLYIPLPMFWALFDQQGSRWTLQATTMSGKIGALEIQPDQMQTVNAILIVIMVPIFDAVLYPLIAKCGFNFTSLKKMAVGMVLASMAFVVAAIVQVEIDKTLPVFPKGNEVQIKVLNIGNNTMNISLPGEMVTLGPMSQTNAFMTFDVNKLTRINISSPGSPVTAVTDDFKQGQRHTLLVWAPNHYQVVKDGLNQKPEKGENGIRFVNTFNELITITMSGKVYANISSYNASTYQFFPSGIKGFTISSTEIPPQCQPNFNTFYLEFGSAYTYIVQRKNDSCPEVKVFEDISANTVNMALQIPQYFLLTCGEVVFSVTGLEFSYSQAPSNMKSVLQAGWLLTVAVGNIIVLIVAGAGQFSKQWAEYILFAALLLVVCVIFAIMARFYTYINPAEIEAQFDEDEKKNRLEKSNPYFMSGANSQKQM
Test: TP_TRANSPORTER: upregulation of mRNA and protein in Caco-2 cells
Type: functional, cell-based

Activity: inducer [+]
SMILES: NCC(=O)N[C@@H](CCC(N)=O)C(=O)O (H-Gly-Gln-OH)
